#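 The concentration for 50% growth inhibition is given as GI50. At the TGI there is no net growth.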
# How the values were obtained:
# Test in all cases: inhibition of tumour cell growth, NCI panel, 384-well format
# [1] = system: HCC-2998 colon
# [2] = system: 786-0 renal
# [3] = system: SK-MEL-5 melanoma
# [4] = system: HCT-116 colon
# [5] = system: UACC-62 melanoma
# [6] = system: A549 NSCLC
# [7] = system: MCF7 breast
# [8] = system: SF-295 CNS
# [9] = system: T-47D breast
# [10] = system: MALME-3M melanoma
# [11] = system: OVCAR-5 ovarian
# [12] = system: M14 melanoma
# [13] = system: SW-620 colon
# [14] = system: A498 renal
# [15] = system: U251 glioblastoma
# [16] = system: OVCAR-8 ovarian
# [17] = system: HCT-15 colon
# [18] = system: KM12 colon
# [19] = system: UO-31 renal
# [20] = system: HT29 colon
# [21] = system: SK-MEL-28 melanoma
# [22] = system: SN12C renal
# [23] = system: HS 578T breast
# [24] = system: MDA-MB-231 breast
# [25] = system: SF-268 CNS
# [26] = system: BT-549 breast
# [27] = system: IGROV1 ovarian
# [28] = system: MDA-MB-435 melanoma
# [29] = system: SK-OV-3 ovarian
# [30] = system: SF-539 CNS
# [31] = system: DU-145 prostate
# [32] = system: EKVX NSCLC
# [33] = system: NCI-H322M lung
# [34] = system: CCRF-CEM leukemia
# [35] = system: LOX IMVI melanoma
# [36] = system: RPMI-8226 leukemia
# [37] = system: CAKI-1 renal
# [38] = system: HL-60(TB) leukemia
# [39] = system: NCI-H522 lung
# [40] = system: UACC-257 melanoma
# [41] = system: SR leukemia
# [42] = system: SK-MEL-2 melanoma
# [43] = system: NCI-H226 lung
# [44] = system: HOP-92 NSCLC
# [45] = system: MDA-MB-468 breast
# [46] = system: TK-10 renal
# [47] = system: NCI-H23 lung
# [48] = system: NCI-H460 NSCLC
# [49] = system: SNB-19 CNS
# [50] = system: HOP-62 NSCLC
# [51] = system: SNB-75 CNS
# [52] = system: OVCAR-4 ovarian
# [53] = system: MOLT-4 leukemia
# [54] = system: COLO 205 colon
# [55] = system: K-562 leukemia
# [56] = system: OVCAR-3 ovarian
# [57] = system: ACHN renal
# [58] = system: PC-3 prostate
# [59] = system: NCI/ADR-RES ovarian
# [60] = system: RXF 393 renal
smiles,measurement,setting,value
C[C@H]1C[C@@H](n2c(Nc3ccc(OC(F)(F)F)cc3)nc3cc(CCC(=O)O)ccc32)CC(C)(C)C1,GI50,[1],14.1 µM
same,TGI,[1],27.1 µM
same,GI50,[2],13.8 µM
same,TGI,[2],26.8 µM
same,GI50,[3],14.2 µM
same,TGI,[3],27.3 µM
same,GI50,[4],12.2 µM
same,TGI,[4],24.9 µM
same,GI50,[5],15.2 µM
same,TGI,[5],28.6 µM
same,GI50,[6],7.54 µM
same,TGI,[6],20.2 µM
same,TGI,[7],19.2 µM
same,GI50,[8],11.8 µM
same,TGI,[8],24.2 µM
same,GI50,[9],13.5 µM
same,TGI,[9],27.6 µM
same,GI50,[10],18.3 µM
same,TGI,[10],32.4 µM
same,GI50,[11],17.2 µM
same,TGI,[11],31.1 µM
same,GI50,[12],15.4 µM
same,TGI,[12],28.9 µM
same,GI50,[13],14.6 µM
same,TGI,[13],27.9 µM
same,GI50,[14],13.3 µM
same,TGI,[14],26.2 µM
same,GI50,[15],9.69 µM
same,TGI,[15],22.5 µM
same,GI50,[16],9.58 µM
same,TGI,[16],22 µM
same,GI50,[17],13.9 µM
same,TGI,[17],27.1 µM
same,GI50,[18],13.8 µM
same,TGI,[18],26.9 µM
same,GI50,[19],11.9 µM
same,TGI,[19],24.4 µM
same,GI50,[20],12.7 µM
same,TGI,[20],25.6 µM
same,GI50,[21],14.3 µM
same,TGI,[21],27.5 µM
same,GI50,[22],15.7 µM
same,TGI,[22],29.2 µM
same,GI50,[23],11 µM
same,TGI,[23],23.1 µM
same,GI50,[24],16.4 µM
same,TGI,[24],30 µM
same,GI50,[25],13 µM
same,TGI,[25],25.8 µM
same,GI50,[26],13 µM
same,TGI,[26],25.8 µM
same,GI50,[27],12.7 µM
same,TGI,[27],25.4 µM
same,GI50,[28],14.9 µM
same,TGI,[28],28.3 µM
same,GI50,[29],18.2 µM
same,TGI,[29],32.2 µM
same,GI50,[30],14.5 µM
same,TGI,[30],27.7 µM
same,GI50,[31],11.8 µM
same,TGI,[31],24.2 µM
same,GI50,[32],14.6 µM
same,TGI,[32],27.9 µM
same,GI50,[33],17 µM
same,TGI,[33],30.9 µM
same,GI50,[34],11.9 µM
same,TGI,[34],24.3 µM
same,GI50,[35],16.7 µM
same,TGI,[35],30.5 µM
same,GI50,[36],4.46 µM
same,TGI,[36],11.4 µM
same,GI50,[37],17.2 µM
same,TGI,[37],31 µM
same,GI50,[38],8.07 µM
same,TGI,[38],17.7 µM
same,GI50,[39],16.5 µM
same,TGI,[39],30.1 µM
same,GI50,[40],17.8 µM
same,TGI,[40],31.8 µM
same,GI50,[41],7 µM
same,TGI,[41],20 µM
same,GI50,[42],17.9 µM
same,TGI,[42],31.8 µM
same,GI50,[43],16.2 µM
same,TGI,[43],29.8 µM
same,GI50,[44],16 µM
same,TGI,[44],29.5 µM
same,GI50,[45],13.7 µM
same,TGI,[45],28.7 µM
same,GI50,[46],16 µM
same,TGI,[46],29.7 µM
same,GI50,[47],14.6 µM
same,TGI,[47],27.9 µM
same,GI50,[48],13.6 µM
same,TGI,[48],26.8 µM
same,GI50,[49],12.5 µM
same,TGI,[49],25.1 µM
same,GI50,[50],12.2 µM
same,TGI,[50],24.7 µM
same,GI50,[51],20.3 µM
same,TGI,[51],34.6 µM
same,GI50,[52],13.1 µM
same,TGI,[52],25.9 µM
same,GI50,[53],5.49 µM
same,TGI,[53],17.4 µM
same,GI50,[54],17.5 µM
same,TGI,[54],31.5 µM
same,GI50,[55],12.2 µM
same,TGI,[55],24.9 µM
same,GI50,[56],9.71 µM
same,TGI,[56],22.5 µM
same,GI50,[57],15.5 µM
same,TGI,[57],30.8 µM
same,GI50,[58],13.7 µM
same,TGI,[58],26.8 µM
same,GI50,[59],16.1 µM
same,TGI,[59],29.8 µM
same,GI50,[60],13 µM
same,TGI,[60],25.7 µM
